Where two headings read alike, the source gives them in different places.
What was measured:
U937 = test: Growth inhibition of leukaemia line, continuous exposure, MTT staining; format: cell-based; conditions: Homo sapiens, U-937
Method: Tumour cell lines were cultured in 96-well plates. […] Primary cultures were incubated at 37°C in sealed perspex boxes containing a humidified atmosphere of 5% CO2 and 5% O2 in nitrogen for 7 days. 5-Methyl-[^3H]-thymidine (20 Ci.mmol^-1; 0.04 µCi per well), thymidine and 5-fluorodeoxyuridine (each at final concentrations of 0.5 µM) were added in medium to cultures (20 µl per well) 24 h before terminating the cultures.
1989, 81:1088-1092, where growth, as indicated by staining or thymidine incorporation, corresponded to 50% of that of the control cultures.
The effect of DACA on the growth of cultured cells was assessed by continuous drug exposure. […] These values were similar to those of other human leukaemia cell lines, which ranged from 290 to 760 nM (CEM-CCRF, 410 nM; MOLT-4, 290 nM; Daudi, 400 nM; Raji, 370 nM, U937, 590 nM; HL-60, 620 nM; K-562, 760 nM). Four multidrug-resistant cell lines, developed from JL and JB1 by in vitro exposure to increasing concentrations of doxorubicin (LD and B1D) or amsacrine (LA and B1A) (Finlay G.J., et al., J. Natl. Cancer Inst. 1990, 82, 662-667, Snow K., et al., Br. J. Cancer 1991, 63, 17-28) were tested.

[1] = tested on: P388 murine leukaemia (P/ACTD); test: Sensitivity of multidrug resistant P388 subline in vitro; format: cell-based; conditions: P-glycoprotein positive multidrug resistant subline
Method: A multidrug resistant subline of P388 murine leukaemia (P/ACTD) was tested for sensitivity to DACA. This line was cross-resistant to actinomycin D, doxo-rubicin, mitoxantrone, etoposide and vincristine. Its resistance to vincristine was overcome by the presence of verapamil (10 µM). It stained for the presence of P-glycoprotein, consistent with the presence of transport-mediated multidrug resistance.

[2] = tested on: P388 murine leukaemia (P/ACTD); conditions: in vitro tests; reported by Schneider et al., Eur. J. Cancer Clin. Oncol. 1988; cited from earlier work
[3] = tested on: primary human melanoma cultures; test: cells; conditions: for IC50: Homo sapiens
Method: Acridine carboxamide hydrochloride, synthesised in the Cancer Research Laboratory (Atwell G.J., et al., J.Med. Chem. 1987, 30, 664-669), and amsacrine isethionate, obtained from the Parke-Davis Division of the Warner-Lambert Company, Ann Arbor, USA, were dissolved in 50% v/v aqueous ethanol to make stock solutions of 2-5 mmol/l and stored at -20°C. Other cytotoxic drugs were available either from the NCI repository (Monks A., et al., J. Natl. Cancer Inst. 1991, 83, 757-766) or were obtained as described in Marshall E.S., et al., J. Natl. Cancer Inst. 1992, 84, 341-344 and Finlay, et al., Eur. J. Cancer din. Oncol. 1986, 22, 655-662. Cell lines were from the NCI repository except for MM-96 (Dr. R. Whitehead, Ludwig Institute, Melbourne, Australia), FME (Dr. K.M. Tveit, Norwegian Radium Hospital, Oslo, Norway) and Jurkat normal and multidrug-resistant lines (Dr. K. Snow and Dr. W. Judd, Department of Cellular and Molecular Biology, University of Auckland). Melanoma tissue was obtained from patients with pathologically confirmed metastatic and recurrent melanomas under Auckland Hospital Ethical Committee guidelines. Cells were released by digestion of tissue (at 50 mg.ml^-1) with collagenase (1 mg.ml^-1) and DNAase (50 µg.ml^-1) with continuous stirring at 37°C for 1 to 2 hours, and cultured as previously described (Marshall E.S., et al., J. Natl. Cancer Inst. 1992, 84, 341-344).
Tumour cell lines were cultured in 96-well plates. Growth of NCI cell lines was assessed using sulpho-rhodamine B staining (Skehan P., et al., J. Natl. Cancer Inst. 1990, 82, 1107-1112), that of the leukaemia lines with (4,5-dimethylthiazole-2-yl)-2,5-diphenyltetrazolium (MTT) staining (Mosmann T., J. Immun. Methods 1983, 65, 55-63) and that of the primary human tumour material by ^3H-thymidine incorporation (Marshall E.S., et al., J. Natl. Cancer Inst. 1992, 84, 341-344). Primary tumour material was cultured in 96-well plates in which the wells were coated with agarose to inhibit selectively the growth of normal cells. (Marshall E.S., et al., J. Natl. Cancer Inst. 1992, 84, 341-344). Primary cultures were incubated at 37°C in sealed perspex boxes containing a humidified atmosphere of 5% CO2 and 5% O2 in nitrogen for 7 days. 5-Methyl-[^3H]-thymidine (20 Ci.mmol^-1; 0.04 µCi per well), thymidine and 5-fluorodeoxyuridine (each at final concentrations of 0.5 µM) were added in medium to cultures (20 µl per well) 24 h before terminating the cultures. Cells were aspirated on to glass fibre filters using a multiple automated sample harvester (LKB Wallac OY Beta Harvester). The filter discs were washed for 15 seconds with water, dried, and the amount of tritium retained quantified by liquid scintillation.
IC50 values were defined as in Paull K.D., et al., J. Natl. Cancer Inst. 1989, 81:1088-1092, where growth, as indicated by staining or thymidine incorporation, corresponded to 50% of that of the control cultures. […] Variances of DELTA values were expressed as standard deviations in log10 units. Comparison of DELTA values was made using Pearson correlation coefficients. Resistance factors were defined as the ratios of IC50 values between the resistant line and the parent line. Statistical evaluation was performed either with NCI programmes, with RS/1 software (BBN Research Systems, Cambridge, MA, USA), or with Sigmaplot (Jandel Scientific, San Rafael, CA, USA).
DACA was also compared in a series of 12 primary melanoma cultures. Tissue was excised from human malignant melanomas and cultured using a modified 96-well assay system in which the cells were cultured on agarose and assayed for proliferation using the ^3H-thymidine incorporation assay as described in Marshall E.S., et al., J. Natl. Cancer Inst. 1992, 84, 341-344.

Compound: CN(C)CCNC(=O)c1cccc2cc3ccccc3nc12 [DACA, N-[2-(dimethylamino)ethyl]acridine-4-carboxamide]
- IC50 (U937): 590 nM
- sensitivity of P/ACTD line [1]: sensitive
- cross-resistance of P/ACTD cells [2]: no cross-resistance
- IC50 ([3]; read-out: IC50 values): 200 to 1500 nM
- IC50 ([3]; read-out: mean IC50): 590 nM
- proportions of cells killed ([3]; human, primary melanoma cultures): > 99%

Reference: patent EP0642343B1, “Acridine carboxamides for the treatment of cancer” (XENOVA LIMITED, priority 1992, dated 1993)
